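Growth conditions: 96-well plates. Treatment: test compound, 48 hours, 5 concentrations. Analysis: linear interpolation between bracketing concentrations; unreached endpoints set to highest concentration. Here, GI50 denotes the concentration required for 50% inhibition of growth.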 Active and inactive are the calls of the source. Rule as the data show it: active = GI50 up to about 1.1 µM and inactive = higher.
Experiments:
Test in all cases: NCI anticancer screen, dose series, 48 h
HCT-116 = test system: HCT-116
M14 = test system: M14
SW-620 = test system: SW-620
SN12C = test system: SN12C
CCRF-CEM = test system: CCRF-CEM
SNB-19 = test system: SNB-19
MDA-N = test system: MDA-N
ACHN = test system: ACHN
A498 = test system: A498
OVCAR-5 = test system: OVCAR-5
TK-10 = test system: TK-10
UACC-62 = test system: UACC-62
EKVX = test system: EKVX
SF-268 = test system: SF-268
UACC-257 = test system: UACC-257
NCI-H460 = test system: NCI-H460
SK-MEL-28 = test system: SK-MEL-28
T47D = test system: T47D
OVCAR-8 = test system: OVCAR-8
IGROV-1 = test system: IGROV-1
SF-539 = test system: SF-539
SF-295 = test system: SF-295
COLO 205 = test system: COLO 205
MOLT-4 = test system: MOLT-4
Malme-3M = test system: Malme-3M
SK-MEL-5 = test system: SK-MEL-5
RXF 393 = test system: RXF 393
LOX IMVI = test system: LOX IMVI
OVCAR-4 = test system: OVCAR-4
DU-145 = test system: DU-145
HL-60 = test system: HL-60
BT-549 = test system: BT-549
KM12 = test system: KM12
SK-MEL-2 = test system: SK-MEL-2
786-0 = test system: 786-0
A549 = test system: A549
NCI/ADR-RES = test system: NCI/ADR-RES
MDA-MB-435 = test system: MDA-MB-435
HCT-15 = test system: HCT-15
HOP-92 = test system: HOP-92
NCI-H522 = test system: NCI-H522
MCF7 = test system: MCF7
NCI-H23 = test system: NCI-H23
PC-3 = test system: PC-3
U-251 = test system: U-251
SNB-75 = test system: SNB-75
HT-29 = test system: HT-29
SK-OV-3 = test system: SK-OV-3
SR = test system: SR
MDA-MB-231 = test system: MDA-MB-231
K562 = test system: K562
Hs-578T = test system: Hs-578T
UO-31 = test system: UO-31
RPMI-8226 = test system: RPMI-8226
OVCAR-3 = test system: OVCAR-3
CAKI-1 = test system: CAKI-1
NCI-H226 = test system: NCI-H226
HOP-62 = test system: HOP-62
HCC 2998 = test system: HCC 2998

Cc1[nH]c2ccccc2c1/C=N/c1ccc(Oc2ccccc2)cc1
GI50 (HCT-116): 16.6 µM (inactive)
GI50 (M14): 16.6 µM (inactive)
GI50 (SW-620): 18 µM (inactive)
GI50 (SN12C): 16.6 µM (inactive)
GI50 (CCRF-CEM): 7.05 µM (inactive)
GI50 (SNB-19): 18 µM (inactive)
GI50 (MDA-N): 17.2 µM (inactive)
GI50 (ACHN): 16.3 µM (inactive)
GI50 (A498): 18.3 µM (inactive)
GI50 (OVCAR-5): 16.3 µM (inactive)
GI50 (TK-10): 16.4 µM (inactive)
GI50 (UACC-62): 17.9 µM (inactive)
GI50 (EKVX): 14.1 µM (inactive)
GI50 (SF-268): 14.6 µM (inactive)
GI50 (UACC-257): 17.4 µM (inactive)
GI50 (NCI-H460): 20.4 µM (inactive)
GI50 (SK-MEL-28): 18.8 µM (inactive)
GI50 (T47D): 18.5 µM (inactive)
GI50 (OVCAR-8): 18.3 µM (inactive)
GI50 (IGROV-1): 13.4 µM (inactive)
GI50 (SF-539): 18.1 µM (inactive)
GI50 (SF-295): 14 µM (inactive)
GI50 (COLO 205): 15.9 µM (inactive)
GI50 (MOLT-4): 13.8 µM (inactive)
GI50 (Malme-3M): 19 µM (inactive)
GI50 (SK-MEL-5): 15.2 µM (inactive)
GI50 (RXF 393): 16.8 µM (inactive)
GI50 (LOX IMVI): 15.5 µM (inactive)
GI50 (OVCAR-4): 14.9 µM (inactive)
GI50 (DU-145): 16.1 µM (inactive)
GI50 (HL-60): 12.1 µM (inactive)
GI50 (BT-549): 14.8 µM (inactive)
GI50 (KM12): 16.2 µM (inactive)
GI50 (SK-MEL-2): 18.4 µM (inactive)
GI50 (786-0): 16.3 µM (inactive)
GI50 (A549): 17.1 µM (inactive)
GI50 (NCI/ADR-RES): 19.1 µM (inactive)
GI50 (MDA-MB-435): 17.2 µM (inactive)
GI50 (HCT-15): 18.6 µM
GI50 (HOP-92): 12.7 µM (inactive)
GI50 (NCI-H522): 14.1 µM (inactive)
GI50 (MCF7): 19.1 µM (inactive)
GI50 (NCI-H23): 16 µM (inactive)
GI50 (PC-3): 13.8 µM (inactive)
GI50 (U-251): 15.3 µM (inactive)
GI50 (SNB-75): 13 µM (inactive)
GI50 (HT-29): 17.3 µM (inactive)
GI50 (SK-OV-3): 17.5 µM (inactive)
GI50 (SR): 19.1 µM (inactive)
GI50 (MDA-MB-231): 15.6 µM (inactive)
GI50 (K562): 23.2 µM (inactive)
GI50 (Hs-578T): 22.6 µM (inactive)
GI50 (UO-31): 12 µM (inactive)
GI50 (RPMI-8226): 10.4 µM (inactive)
GI50 (OVCAR-3): 14.2 µM (inactive)
GI50 (CAKI-1): 15.9 µM (inactive)

COc1cccc(/N=N/N2CCCC2)c1
GI50 (HCT-116): > 100 µM (inactive)
GI50 (M14): > 100 µM (inactive)
GI50 (NCI-H226): > 100 µM (inactive)
GI50 (SW-620): > 100 µM (inactive)
GI50 (SN12C): > 100 µM (inactive)
GI50 (CCRF-CEM): > 100 µM (inactive)
GI50 (SNB-19): > 100 µM (inactive)
GI50 (MDA-N): 41.4 µM (inactive)
GI50 (ACHN): > 100 µM (inactive)
GI50 (A498): > 100 µM (inactive)
GI50 (OVCAR-5): > 100 µM (inactive)
GI50 (TK-10): > 100 µM (inactive)
GI50 (UACC-62): 39.5 µM (inactive)
GI50 (EKVX): > 100 µM (inactive)
GI50 (SF-268): > 100 µM (inactive)
GI50 (UACC-257): > 100 µM (inactive)
GI50 (NCI-H460): > 100 µM (inactive)
GI50 (T47D): > 100 µM (inactive)
GI50 (OVCAR-8): > 100 µM (inactive)
GI50 (IGROV-1): > 100 µM (inactive)
GI50 (SF-539): > 100 µM (inactive)
GI50 (SF-295): 26.5 µM (inactive)
GI50 (COLO 205): > 100 µM (inactive)
GI50 (MOLT-4): > 100 µM (inactive)
GI50 (SK-MEL-5): > 100 µM (inactive)
GI50 (RXF 393): > 100 µM (inactive)
GI50 (LOX IMVI): 40.2 µM (inactive)
GI50 (OVCAR-4): > 100 µM (inactive)
GI50 (DU-145): > 100 µM (inactive)
GI50 (HL-60): 34.6 µM (inactive)
GI50 (BT-549): > 100 µM (inactive)
GI50 (KM12): 9.46 µM (inactive)
GI50 (SK-MEL-2): > 100 µM (inactive)
GI50 (786-0): > 100 µM (inactive)
GI50 (NCI/ADR-RES): > 100 µM (inactive)
GI50 (MDA-MB-435): 59.2 µM (inactive)
GI50 (HCT-15): > 100 µM
GI50 (HOP-92): > 100 µM (inactive)
GI50 (HOP-62): > 100 µM (inactive)
GI50 (NCI-H522): > 100 µM (inactive)
GI50 (MCF7): > 100 µM (inactive)
GI50 (NCI-H23): > 100 µM (inactive)
GI50 (PC-3): 27.2 µM (inactive)
GI50 (U-251): > 100 µM (inactive)
GI50 (SNB-75): > 100 µM (inactive)
GI50 (SK-OV-3): > 100 µM (inactive)
GI50 (SR): 40.2 µM (inactive)
GI50 (MDA-MB-231): > 100 µM (inactive)
GI50 (K562): > 100 µM (inactive)
GI50 (Hs-578T): > 100 µM (inactive)
GI50 (UO-31): > 100 µM (inactive)
GI50 (RPMI-8226): 53.7 µM (inactive)
GI50 (OVCAR-3): > 100 µM (inactive)
GI50 (CAKI-1): > 100 µM (inactive)

c1cnn(C23C4C5C6C4C2C6C53)c1 (stereo not given)
GI50 (HCT-116): > 100 µM (inactive)
GI50 (NCI-H226): 60.4 µM (inactive)
GI50 (SW-620): > 100 µM (inactive)
GI50 (SN12C): > 100 µM (inactive)
GI50 (CCRF-CEM): > 100 µM (inactive)
GI50 (SNB-19): > 100 µM (inactive)
GI50 (MDA-N): > 100 µM (inactive)
GI50 (ACHN): > 100 µM (inactive)
GI50 (A498): > 100 µM (inactive)
GI50 (OVCAR-5): > 100 µM (inactive)
GI50 (TK-10): > 100 µM (inactive)
GI50 (EKVX): > 100 µM (inactive)
GI50 (SF-268): > 100 µM (inactive)
GI50 (UACC-257): > 100 µM (inactive)
GI50 (NCI-H460): > 100 µM (inactive)
GI50 (SK-MEL-28): > 100 µM (inactive)
GI50 (T47D): > 100 µM (inactive)
GI50 (OVCAR-8): > 100 µM (inactive)
GI50 (IGROV-1): > 100 µM (inactive)
GI50 (SF-539): > 100 µM (inactive)
GI50 (SF-295): > 100 µM (inactive)
GI50 (COLO 205): > 100 µM (inactive)
GI50 (MOLT-4): > 100 µM (inactive)
GI50 (SK-MEL-5): > 100 µM (inactive)
GI50 (LOX IMVI): > 100 µM (inactive)
GI50 (DU-145): > 100 µM (inactive)
GI50 (HL-60): > 100 µM (inactive)
GI50 (BT-549): 71.6 µM (inactive)
GI50 (KM12): > 100 µM (inactive)
GI50 (SK-MEL-2): > 100 µM (inactive)
GI50 (786-0): > 100 µM (inactive)
GI50 (A549): > 100 µM (inactive)
GI50 (NCI/ADR-RES): > 100 µM (inactive)
GI50 (MDA-MB-435): > 100 µM (inactive)
GI50 (HCT-15): > 100 µM
GI50 (HCC 2998): > 100 µM (inactive)
GI50 (HOP-62): > 100 µM (inactive)
GI50 (NCI-H522): > 100 µM (inactive)
GI50 (MCF7): > 100 µM (inactive)
GI50 (NCI-H23): > 100 µM (inactive)
GI50 (PC-3): > 100 µM (inactive)
GI50 (U-251): > 100 µM (inactive)
GI50 (SNB-75): > 100 µM (inactive)
GI50 (HT-29): > 100 µM (inactive)
GI50 (SK-OV-3): > 100 µM (inactive)
GI50 (SR): > 100 µM (inactive)
GI50 (MDA-MB-231): > 100 µM (inactive)
GI50 (K562): > 100 µM (inactive)
GI50 (Hs-578T): > 100 µM (inactive)
GI50 (RPMI-8226): > 100 µM (inactive)
